For 26 compounds, IC50 results are on record in US20080188528A1, “Modulators of C3a receptor and methods of use thereof” (priority 2006, published 2008).

The target of the experiment is T1, human C3a receptor (C3aR) (Homo sapiens, UniProt Q16581).
T1 construct: expressed in transfected cells
T1 sequence (Q16581 1-482): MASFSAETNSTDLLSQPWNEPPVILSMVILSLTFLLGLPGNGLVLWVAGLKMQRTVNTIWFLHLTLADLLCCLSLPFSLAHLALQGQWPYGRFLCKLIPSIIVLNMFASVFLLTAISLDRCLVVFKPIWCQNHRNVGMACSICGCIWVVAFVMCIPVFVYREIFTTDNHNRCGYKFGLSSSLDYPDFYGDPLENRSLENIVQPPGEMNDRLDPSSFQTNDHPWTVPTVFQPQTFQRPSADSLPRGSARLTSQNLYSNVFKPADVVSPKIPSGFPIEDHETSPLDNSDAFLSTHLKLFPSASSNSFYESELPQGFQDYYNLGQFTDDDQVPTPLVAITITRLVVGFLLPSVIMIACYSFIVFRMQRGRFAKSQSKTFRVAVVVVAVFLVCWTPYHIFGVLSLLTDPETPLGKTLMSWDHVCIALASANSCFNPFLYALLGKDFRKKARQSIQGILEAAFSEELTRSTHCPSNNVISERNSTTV
Briefly: Inhibition of human [125I]-C3a binding to human C3a receptor (SPA, membranes of HEK293 cells expressing recombinant C3aR). As to conditions: 0.1 nM [125I]-C3a, 3 hours at room temperature. The protocol: Inhibition of human [^125I]-C3a binding to human C3a receptor
Binding of human [^125I]-C3a to human C3a receptor (C3aR) was done using cell membranes from HEK293 cells stably expressing recombinant C3aR, in a homogeneous scintillation proximity assay (SPA). The C3aR cell membranes were pre-coupled over-night at 4° C. to WGA-PVT SPA beads (Amersham) at a ratio of 10 μg cell membrane to 0.5 mg beads/assay. Assay was performed in 96-well microtiter Optiplates (Packard) by mixing coupled beads and 0.1 nM [^125I]-C3a (2200 Ci/mmol, Perkin Elmer Life Sciences), in a total volume of […] binding buffer (20 mM HEPES, pH 7.4, 125 mM NaCl, 5 mM KCl, 1 mM CaCl2, 1 mM MgCl2, 0.25% BSA, 0.2% CHAPS). Test compounds were diluted in DMSO and were tested for their inhibitory potential in the assay (final concentration≦1% DMSO). Incubation was done for 3 hours at room temperature followed by reading in a TopCount scintillation microplate reader. Non-specific binding was determined by adding 1 μM unlabeled C3a (Calbiochem) to the assay mixture. Calculation of the IC50 was done as above using a nonlinear least square fitting program, with Graphpad Prism.

Structures can show the parent of a compound that is named as a salt.

As a reminder, the IC50 is the concentration at which inhibition is half-maximal. `N=C(N)NCCC[C@H](NC(=O)c1cccn(C(c2ccccc2F)c2ccccc2F)c1=O)C(=O)O` [Compound 46, (2S)-2-[({1-[bis(2-fluorophenyl)methyl]-2-oxo-1,2-dihydropyridin-3-yl}carbonyl)amino]-5-carbamimidamidopentanoic acid•TFA]: the IC50 (Table 2) is under 50 nM.
Take `Cc1cc(C)cc(C(c2cc(C)cc(C)c2)n2cccc(C(=O)N[C@@H](CCCNC(=N)N)C(=O)O)c2=O)c1` [Compound 47, (2S)-2-[({1-[bis(3,5-dimethylphenyl)methyl]-2-oxo-1,2-dihydropyridin-3-yl}carbonyl)amino]-5-carbamimidamidopentanoic acid•TFA]: the IC50 (Table 2) is under 50 nM.
The same measure, in the same setting: the same measure for `N=C(N)NCCC[C@H](NC(=O)c1cccn(C(c2cccc(C(F)(F)F)c2)c2cccc(C(F)(F)F)c2)c1=O)C(=O)O` [Compound 48, (2S)-2-{[(1-{bis[3-(trifluoromethyl)phenyl]methyl}-2-oxo-1,2-dihydropyridin-3-yl)carbonyl]amino}-5-carbamimidamidopentanoic acid•TFA]: under 50 nM; for `N=C(N)NCCC[C@H](NC(=O)c1cccn(C(c2ccc(C(F)(F)F)cc2)c2ccc(C(F)(F)F)cc2)c1=O)C(=O)O` [Compound 49, (2S)-2-{[(1-{bis[4-(trifluoromethyl)phenyl]methyl}-2-oxo-1,2-dihydropyridin-3-yl)carbonyl]amino}-5-carbamimidamidopentanoic acid•TFA]: 50 to 500 nM.
For `CC(c1ccccc1)n1cccc(C(=O)N[C@@H](CCCNC(=N)N)C(=O)O)c1=O` (stereo partly drawn) [Compound 50, (2S)-5-carbamimidamido-2-({[2-oxo-1-(1-phenylethyl)-1,2-dihydropyridin-3-yl]carbonyl}amino)pentanoic acid•TFA], under “Table 2”, the IC50 is under 50 nM.
Consider `N=C(N)NCCC[C@H](NC(=O)c1ccc(Cc2ccccc2)cc1)C(=O)O` [Compound 51, (2S)-2-[(4-benzylbenzoyl)amino]-5-carbamimidamidopentanoic acid•TFA], for which the IC50 (Table 3) was 50 to 500 nM.
`N=C(N)NCCC[C@H](NC(=O)c1cccc(Cc2ccccc2)c1)C(=O)O` [Compound 52, (2S)-2-[(3-benzylbenzoyl)amino]-5-carbamimidamidopentanoic acid•TFA]: the IC50 (Table 3) is 50 to 500 nM.
In the case of `N=C(N)NCCC[C@H](NC(=O)c1ccn(Cc2ccccc2)c(=O)c1)C(=O)O` [Compound 53, (2S)-2-{[(1-benzyl-2-oxo-1,2-dihydropyridin-4-yl)carbonyl]amino}-5-carbamimidamidopentanoic acid•TFA], the IC50 (Table 3) was in the range of 50 to 500 nM.
The same measure, in the same setting: the same measure for `N=C(N)NCCC[C@H](NC(=O)c1ccc(=O)n(Cc2ccccc2)c1)C(=O)O` [Compound 54, (2S)-2-{[(1-benzyl-6-oxo-1,6-dihydropyridin-3-yl)carbonyl]amino}-5-carbamimidamidopentanoic acid•TFA]: 50 to 500 nM.
For the compound `N=C(N)NCCC[C@H](NC(=O)c1cccc(=O)n1Cc1ccccc1)C(=O)O` [Compound 55, (2S)-2-{[(1-benzyl-6-oxo-1,6-dihydropyridin-2-yl)carbonyl]amino}-5-carbamimidamidopentanoic acid•TFA], the IC50 (Table 3) was in the range of 50 to 500 nM.
`N=C(N)NCCC[C@H](NC(=O)c1ccn(C(c2ccccc2)c2ccccc2)c(=O)c1)C(=O)O` [Compound 56, (2S)-5-carbamimidamido-2-({[1-(diphenylmethyl)-2-oxo-1,2-dihydropyridin-4-yl]carbonyl}amino)pentanoic acid•TFA]: the IC50 (Table 3) lay within 50 to 500 nM.
Still for that read-out and setting: the same measure for `N=C(N)NCCC[C@H](NC(=O)c1ccc(=O)n(C(c2ccccc2)c2ccccc2)c1)C(=O)O` [Compound 57, (2S)-5-carbamimidamido-2-({[1-(diphenylmethyl)-6-oxo-1,6-dihydropyridin-3-yl]carbonyl}amino)pentanoic acid•TFA]: 500 to 20000 nM; for `CC(C)(C(=O)NC(c1ccccc1)c1ccccc1)C(=O)N[C@@H](CCCNC(=N)N)C(=O)O` [Compound 58, (2S)-5-carbamimidamido-2-({3-[(diphenylmethyl)amino]-2,2-dimethyl-3-oxopropanoyl}amino)pentanoic acid•TFA]: under 50 nM.
Consider `NCCCC[C@H](NC(=O)c1cccn(Cc2ccccc2)c1=O)C(=O)O` [Compound 60, (2S)-6-amino-2-{[(1-benzyl-2-oxo-1,2-dihydropyridin-3-yl)carbonyl]amino}hexanoic acid•TFA], for which the IC50 (Table 4) lay in the range of 500 to 20000 nM.
Same read-out and setting: as for `Cc1ccc(S(=O)(=O)NCCCC[C@H](NC(=O)c2cccn(Cc3ccccc3)c2=O)C(=O)O)cc1` [Compound 61, (2S)-2-{[(1-benzyl-2-oxo-1,2-dihydropyridin-3-yl)carbonyl]amino}-6-{[(4-methylphenyl)sulfonyl]amino} hexanoic acid], the figure is 500 to 20000 nM.
Still for that read-out and setting: the same measure for `Cc1ccc(S(=O)(=O)NCCCC[C@H](NC(=O)c2cccn(C(c3ccccc3)c3ccccc3)c2=O)C(=O)O)cc1` [Compound 62, (2S)-2-({[1-(diphenylmethyl)-2-oxo-1,2-dihydropyridin-3-yl]carbonyl}amino)-6-{[(4-methylphenyl)sulfonyl]amino}hexanoic acid]: 50 to 500 nM; for `N=C(N)NCCCC[C@H](NC(=O)c1cccn(Cc2ccccc2)c1=O)C(=O)O` [Compound 63, (2S)-2-{[(1-benzyl-2-oxo-1,2-dihydropyridin-3-yl)carbonyl]amino}-6-carbamimidamidohexanoic acid•TFA]: 500 to 20000 nM; for `NC(=O)CC[C@H](NC(=O)c1cccn(C(c2ccccc2)c2ccccc2)c1=O)C(=O)O` [Compound 64, (2S)-5-amino-2-({[1-(diphenylmethyl)-2-oxo-1,2-dihydropyridin-3-yl]carbonyl}amino)-5-oxopentanoic acid]: 500 to 20000 nM.
Same read-out and setting: the same measure for `N=C(N)NCC[C@H](NC(=O)c1cccn(C(c2ccccc2)c2ccccc2)c1=O)C(=O)O` [Compound 65, (2S)-4-carbamimidamido-2-({[1-(diphenylmethyl)-2-oxo-1,2-dihydropyridin-3-yl]carbonyl}amino)butanoic acid•TFA]: 50 to 500 nM; for `CCOC(=O)N=C(NC)NCC[C@H](NC(=O)c1cccn(C(c2ccccc2)c2ccccc2)c1=O)C(=O)O` [Compound 66, (2S)-2-({[1-(diphenylmethyl)-2-oxo-1,2-dihydropyridin-3-yl]carbonyl}amino)-4-{[[(ethoxycarbonyl)amino](methylamino)methylene]amino}butanoic acid]: 500 to 20000 nM; for `Cc1ccc(S(=O)(=O)NCCC[C@H](NC(=O)c2cccn(Cc3ccccc3)c2=O)C(=O)O)cc1` [Compound 67, (2S)-2-{[(1-benzyl-2-oxo-1,2-dihydropyridin-3-yl)carbonyl]amino}-5-{[(4-methylphenyl)sulfonyl]amino}pentanoic acid]: 500 to 20000 nM.
In the case of `Cc1ccc(S(=O)(=O)NCCC[C@H](NC(=O)c2cccn(C(c3ccccc3)c3ccccc3)c2=O)C(=O)O)cc1` [Compound 68, (2S)-2-({[1-(diphenylmethyl)-2-oxo-1,2-dihydropyridin-3-yl]carbonyl}amino)-5-{[(4-methylphenyl)sulfonyl]amino}pentanoic acid], for the setting “Table 4”, the IC50 was in the range of 500 to 20000 nM.
Still for that read-out and setting: the same measure for `CS(=O)(=O)NCCC[C@H](NC(=O)c1cccn(C(c2ccccc2)c2ccccc2)c1=O)C(=O)O` [Compound 69, (S)-2-(1-benzhydryl-2-oxo-1,2-dihydropyridine-3-carboxamido)-5-(methylsulfonamido)pentanoic acid]: 50 to 500 nM; for `O=C(N[C@@H](CCCNC1=NCCN1)C(=O)O)c1cccn(Cc2ccccc2)c1=O` [Compound 70, (2S)-2-{[(1-benzyl-2-oxo-1,2-dihydropyridin-3-yl)carbonyl]amino}-5-(4,5-dihydro-1H-imidazol-2-ylamino)pentanoic acid•TFA]: 500 to 20000 nM.
Regarding `O=C(N[C@@H](CCCNC1=NCCN1)C(=O)O)c1cccn(C(c2ccccc2)c2ccccc2)c1=O` [Compound 71, (2S)-5-(4,5-dihydro-1H-imidazol-2-ylamino)-2-({[1-(diphenylmethyl)-2-oxo-1,2-dihydropyridin-3-yl]carbonyl}amino)pentanoic acid•TFA], where the note is “Table 4”, the IC50 was under 50 nM.
The same measure, in the same setting: as for `N=C(N)Nc1cccc([C@H](NC(=O)c2cccn(Cc3ccccc3)c2=O)C(=O)O)c1` [Compound 72, (2S)-{[(1-benzyl-2-oxo-1,2-dihydropyridin-3-yl)carbonyl]amino}(3-carbamimidamidophenyl)acetic acid•TFA], the figure is 50 to 500 nM.
